Several values for one entry are separate records, joined by “and”; a condition that tells them apart may be missing. Equal entries are not always repeated.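 Briefly, cells in 96-well plates were exposed to five compound concentrations for 48 h, and endpoints were estimated by linear interpolation. GI50 marks 50% less growth. At the TGI there is no net growth.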
Assays:
Assay in all cases: NCI tumour cell line growth inhibition, 48 h
COLO 205 colon = system: COLO 205 colon
LOX IMVI melanoma = system: LOX IMVI melanoma
OVCAR-5 ovarian = system: OVCAR-5 ovarian
MDA-MB-435 = system: MDA-MB-435
SK-MEL-28 melanoma = system: SK-MEL-28 melanoma
NCI-H226 lung = system: NCI-H226 lung
NCI-H460 lung = system: NCI-H460 lung
RXF 393 renal = system: RXF 393 renal
HT29 colon = system: HT29 colon
SNB-75 CNS = system: SNB-75 CNS

CCCCCCCCCCCCN=C(N)c1ccc(N2CCN(c3ccc(C(N)=NCCCCCCCCCCCC)cc3)CC2)cc1
GI50 (COLO 205 colon): 11.6 µM
TGI (COLO 205 colon): 24.4 µM
GI50 (LOX IMVI melanoma): 12 µM
TGI (LOX IMVI melanoma): 23 µM
GI50 (OVCAR-5 ovarian): 7.16 µM
TGI (OVCAR-5 ovarian): 14.3 µM
GI50 (MDA-MB-435): 9.4 µM
TGI (MDA-MB-435): 19.4 µM
GI50 (SK-MEL-28 melanoma): 13.3 µM
TGI (SK-MEL-28 melanoma): 26.9 µM
GI50 (NCI-H226 lung): 12.9 µM
TGI (NCI-H226 lung): 29.9 µM
GI50 (NCI-H460 lung): 13.8 µM
TGI (NCI-H460 lung): > 50 µM
GI50 (RXF 393 renal): 9.54 µM
TGI (RXF 393 renal): 37.6 µM
GI50 (HT29 colon): 5.68 µM
TGI (HT29 colon): 25.6 µM

O=C(Nc1ccc(Cl)cc1C(=O)O)c1ccc([N+](=O)[O-])cc1
TGI (COLO 205 colon): 39.4 µM
TGI (LOX IMVI melanoma): 37.6 µM
TGI (OVCAR-5 ovarian): 55 µM
TGI (SK-MEL-28 melanoma): 97.2 µM
TGI (NCI-H226 lung): 72.2 µM
TGI (NCI-H460 lung): 45.7 µM
TGI (SNB-75 CNS): > 100 µM
TGI (HT29 colon): 40.7 µM

O=C(Nc1cc(Cl)cc(Cl)c1)c1cccc(NC2=C(Cl)C(=O)N(Cc3ccccc3)C2=O)c1
GI50 (COLO 205 colon): 31.5 µM
TGI (COLO 205 colon): > 100 µM
GI50 (LOX IMVI melanoma): 12.1 µM
TGI (LOX IMVI melanoma): > 100 µM
GI50 (OVCAR-5 ovarian): > 100 µM
TGI (OVCAR-5 ovarian): > 100 µM
GI50 (MDA-MB-435): 21.8 µM
TGI (MDA-MB-435): 88.1 µM
GI50 (SK-MEL-28 melanoma): 54.7 µM
TGI (SK-MEL-28 melanoma): > 100 µM
GI50 (NCI-H226 lung): 51.4 µM
TGI (NCI-H226 lung): > 100 µM
GI50 (NCI-H460 lung): 33.2 µM
TGI (NCI-H460 lung): > 100 µM
GI50 (RXF 393 renal): 18.9 µM
TGI (RXF 393 renal): > 100 µM

COc1cc2c3c(n(CCCNCCCNCCN)c(=O)c2cc1OC)-c1cc2c(cc1C3=O)OCO2
GI50 (COLO 205 colon): 23.8 µM
TGI (COLO 205 colon): > 100 µM
GI50 (LOX IMVI melanoma): 13.1 µM
TGI (LOX IMVI melanoma): 36.4 µM
GI50 (MDA-MB-435): 38 µM
TGI (MDA-MB-435): > 100 µM
GI50 (SK-MEL-28 melanoma): 48.5 µM
TGI (SK-MEL-28 melanoma): > 100 µM
GI50 (NCI-H226 lung): 79.4 µM
TGI (NCI-H226 lung): > 100 µM
GI50 (NCI-H460 lung): > 100 µM
TGI (NCI-H460 lung): > 100 µM
GI50 (SNB-75 CNS): 28.9 µM
TGI (SNB-75 CNS): 94.6 µM
GI50 (RXF 393 renal): > 100 µM
TGI (RXF 393 renal): > 100 µM
GI50 (HT29 colon): 20.9 µM
TGI (HT29 colon): 95.2 µM

CC[C@H](C)[C@H](NC(=O)[C@H]1CCCCN1C)C(=O)N(C)[C@H](C[C@@H](OC(C)=O)c1cccc(C(=O)N[C@@H](Cc2ccccc2)C[C@H](C)C(=O)O)n1)C(C)C
GI50 (COLO 205 colon): 0.00187 µM
TGI (COLO 205 colon): 0.0143 µM
GI50 (LOX IMVI melanoma): 0.00168 µM and 0.0025 µM
TGI (LOX IMVI melanoma): > 25 µM
TGI (OVCAR-5 ovarian): > 25 µM
GI50 (MDA-MB-435): 0.000279 µM and < 0.0025 µM
TGI (MDA-MB-435): 0.00152 µM and < 0.0025 µM
TGI (SK-MEL-28 melanoma): > 25 µM
TGI (NCI-H226 lung): > 25 µM
GI50 (NCI-H460 lung): 0.00278 µM and 0.0025 µM
TGI (NCI-H460 lung): > 25 µM
TGI (SNB-75 CNS): > 25 µM
GI50 (HT29 colon): 0.00168 µM

O=C(Nc1ccccc1)OC1OC(COC(=O)c2ccccc2)C(OC(=O)c2ccccc2)C1OS(=O)(=O)c1ccc([N+](=O)[O-])cc1 (stereo not drawn)
TGI (COLO 205 colon): > 100 µM
TGI (LOX IMVI melanoma): > 100 µM
TGI (OVCAR-5 ovarian): > 100 µM
TGI (MDA-MB-435): > 100 µM
TGI (SK-MEL-28 melanoma): > 100 µM
TGI (NCI-H226 lung): > 100 µM
TGI (NCI-H460 lung): > 100 µM
TGI (RXF 393 renal): > 100 µM
TGI (HT29 colon): > 100 µM

CC1=C(C(=O)Nc2ccc(F)c(Cl)c2)C(c2cccc(Oc3ccccc3)c2)NC(=S)N1 (stereo not drawn)
GI50 (COLO 205 colon): 17.9 µM
TGI (COLO 205 colon): > 50 µM
GI50 (LOX IMVI melanoma): 8.77 µM
TGI (LOX IMVI melanoma): 20.2 µM
GI50 (OVCAR-5 ovarian): 19.2 µM
TGI (OVCAR-5 ovarian): 34.8 µM
GI50 (MDA-MB-435): 11.9 µM
TGI (MDA-MB-435): 33.8 µM
GI50 (SK-MEL-28 melanoma): 8.89 µM
TGI (SK-MEL-28 melanoma): 25.9 µM
GI50 (NCI-H460 lung): 13.5 µM
TGI (NCI-H460 lung): 33.6 µM
GI50 (RXF 393 renal): 6.79 µM
TGI (RXF 393 renal): 15.6 µM

COCCc1n(Cc2ccc3ccccc3c2)c2ccccc2[n+]1Cc1ccc2ccccc2c1
GI50 (OVCAR-5 ovarian): 1.11 µM
TGI (OVCAR-5 ovarian): 2.47 µM
GI50 (MDA-MB-435): 0.41 µM
TGI (MDA-MB-435): 1.56 µM
GI50 (SK-MEL-28 melanoma): 0.567 µM
TGI (SK-MEL-28 melanoma): 1.97 µM
GI50 (HT29 colon): 0.379 µM
TGI (HT29 colon): 1.51 µM

CC1=CP(=O)(c2ccccc2)C=C(C)C1=C(Cl)Cl (stereo not drawn)
TGI (COLO 205 colon): 16.4 µM
TGI (LOX IMVI melanoma): 14.9 µM
TGI (SK-MEL-28 melanoma): 23.4 µM
TGI (NCI-H226 lung): 9.68 µM
TGI (NCI-H460 lung): 59.1 µM
TGI (SNB-75 CNS): > 100 µM
TGI (RXF 393 renal): 33.5 µM
TGI (HT29 colon): 13.1 µM

C[N+](C)(C)c1cc[c]([Sn]([c]2ccc([N+](C)(C)C)cc2)([c]2ccc([N+](C)(C)C)cc2)[c]2ccc([N+](C)(C)C)cc2)cc1
GI50 (COLO 205 colon): > 100 µM
TGI (COLO 205 colon): > 100 µM
GI50 (LOX IMVI melanoma): > 100 µM
TGI (LOX IMVI melanoma): > 100 µM
GI50 (OVCAR-5 ovarian): > 100 µM
TGI (OVCAR-5 ovarian): > 100 µM
GI50 (SK-MEL-28 melanoma): > 100 µM
TGI (SK-MEL-28 melanoma): > 100 µM
GI50 (NCI-H460 lung): > 100 µM
TGI (NCI-H460 lung): > 100 µM
GI50 (SNB-75 CNS): > 100 µM
TGI (SNB-75 CNS): > 100 µM
GI50 (RXF 393 renal): > 100 µM
TGI (RXF 393 renal): > 100 µM
GI50 (HT29 colon): > 100 µM
TGI (HT29 colon): > 100 µM

COc1cc2c(c(OC)c1OC)-c1ccc(SC)c(=O)cc1[C@@H](NC(=O)C(F)(F)F)CC2
TGI (COLO 205 colon): < 0.0631 µM
TGI (LOX IMVI melanoma): > 87.3 µM
TGI (OVCAR-5 ovarian): > 100 µM
TGI (SK-MEL-28 melanoma): 17.8 µM
TGI (SNB-75 CNS): 6.29 µM
TGI (RXF 393 renal): 1.28 µM
TGI (HT29 colon): 0.182 µM

O=C1C=C2CCCC2C(C(=O)O)(C(=O)O)C1 (stereo not drawn)
TGI (COLO 205 colon): > 100 µM
TGI (LOX IMVI melanoma): > 100 µM
TGI (SK-MEL-28 melanoma): > 100 µM
TGI (NCI-H460 lung): > 100 µM
TGI (SNB-75 CNS): > 100 µM
TGI (RXF 393 renal): > 100 µM
TGI (HT29 colon): > 100 µM

COc1ccc2c(c1)/C(=C\c1c(-c3cc(OC)ccc3OC)nc3sccn13)C(=O)N2
GI50 (COLO 205 colon): 1.51 µM
TGI (COLO 205 colon): 2.84 µM
GI50 (LOX IMVI melanoma): 5.22 µM
TGI (LOX IMVI melanoma): 21.5 µM
GI50 (OVCAR-5 ovarian): 6.65 µM and 1.73 µM
TGI (OVCAR-5 ovarian): 3.1 µM
GI50 (MDA-MB-435): 2.05 µM and 14.3 µM
TGI (MDA-MB-435): 4.6 µM and 39 µM
GI50 (SK-MEL-28 melanoma): 1.49 µM
TGI (SK-MEL-28 melanoma): 2.81 µM
GI50 (NCI-H226 lung): 11.8 µM
TGI (NCI-H226 lung): 54.2 µM
GI50 (NCI-H460 lung): 4.39 µM
TGI (NCI-H460 lung): > 100 µM
GI50 (RXF 393 renal): 1.77 µM
TGI (RXF 393 renal): 3.93 µM
GI50 (HT29 colon): 1.37 µM
TGI (HT29 colon): 2.66 µM

CCN1C(=O)N(CC)C2C1NN=c1s/c(=C3\C(=O)N(C4CCCC4)c4ccccc43)c(=O)n12 (stereo not drawn)
GI50 (COLO 205 colon): 1.89 µM
TGI (COLO 205 colon): 12.2 µM
GI50 (LOX IMVI melanoma): 1.63 µM
TGI (LOX IMVI melanoma): > 100 µM
GI50 (OVCAR-5 ovarian): 3.75 µM
TGI (OVCAR-5 ovarian): > 100 µM
GI50 (MDA-MB-435): 0.242 µM
TGI (MDA-MB-435): 0.661 µM
GI50 (SK-MEL-28 melanoma): 1.18 µM
TGI (SK-MEL-28 melanoma): > 100 µM
GI50 (NCI-H226 lung): 1.47 µM
TGI (NCI-H226 lung): 5.54 µM
GI50 (NCI-H460 lung): 0.906 µM
TGI (NCI-H460 lung): > 100 µM
GI50 (RXF 393 renal): 0.603 µM
TGI (RXF 393 renal): 3.2 µM
GI50 (HT29 colon): 0.695 µM
TGI (HT29 colon): > 100 µM

COc1ccc(/C=C/C(=O)c2c(-c3ccccc3)nn(C)c(=O)c2N2CCOCC2)cc1
TGI (COLO 205 colon): > 100 µM
TGI (LOX IMVI melanoma): > 100 µM
TGI (SK-MEL-28 melanoma): > 100 µM
TGI (NCI-H460 lung): > 100 µM
TGI (RXF 393 renal): > 100 µM
TGI (HT29 colon): > 100 µM

CCOC(=O)c1c(C)nc2c(c1N)/C(=C/c1ccccn1)C(=O)N2Cc1ccccc1
GI50 (COLO 205 colon): 1.06 µM
TGI (COLO 205 colon): 2.38 µM
GI50 (LOX IMVI melanoma): 0.83 µM
TGI (LOX IMVI melanoma): 1.54 µM
GI50 (OVCAR-5 ovarian): 1.04 µM
TGI (OVCAR-5 ovarian): 2.68 µM
GI50 (SK-MEL-28 melanoma): 1.16 µM
TGI (SK-MEL-28 melanoma): 3.21 µM
GI50 (NCI-H460 lung): 1.17 µM
TGI (NCI-H460 lung): 2.8 µM
GI50 (RXF 393 renal): 0.95 µM
TGI (RXF 393 renal): 1.79 µM
GI50 (HT29 colon): 1.32 µM
TGI (HT29 colon): 3.14 µM

NCCCNc1nc2ccccc2c2c(=O)c3cccc(Cl)c3sc12
GI50 (OVCAR-5 ovarian): 1.55 µM
TGI (OVCAR-5 ovarian): 3.04 µM
GI50 (MDA-MB-435): 1.73 µM
TGI (MDA-MB-435): 3.12 µM
GI50 (SK-MEL-28 melanoma): 1.81 µM
TGI (SK-MEL-28 melanoma): 3.29 µM
GI50 (SNB-75 CNS): 1.34 µM
TGI (SNB-75 CNS): 2.69 µM
GI50 (RXF 393 renal): 1.47 µM
TGI (RXF 393 renal): 2.83 µM
